Results from US11629171B2, “Beta-hairpin peptidomimetics” (POLYPHOR AG, priority 2017, dated 2023).
Converted amounts (≈) assume the structure as drawn. Where a SMILES comes first, the peptide text is derived from it. Bridges are numbered along the chain shown (N, C = ends). Roman numbers before positions name the chains, in order. [ ]: non-standard residue; d: D form. The star is where a group is joined. Heptanoyl(6-Me) = CC(C)CCCCC(=O)*; Pen = CC(C)(S)[C@H](N)C(=O)O; Tle = CC(C)(C)[C@H](N)C(=O)O; NMeV = CN[C@H](C(=O)O)C(C)C; dDab = NCC[C@@H](N)C(=O)O; hSer = N[C@@H](CCO)C(=O)O; Orn = NCCC[C@H](N)C(=O)O; Dab = NCC[C@H](N)C(=O)O; Dap = NC[C@H](N)C(=O)O

Tests used:
Type in all cases: cell-based
Escherichia coli 926415 = settings: 926415
Procedure, shortened: (§1)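 Visible-growth endpoint after 18-20 h at 35° C defines the MIC (μg/mL). Setup: CLSI broth microdilution, MH-II cation-adjusted broth with P-80 at 0.002% final, inoculum of approximately 10^6 CFU/mL, two-fold serial peptide dilutions.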

[1] = test system: Acinetobacter baumannii 872842; settings: 872842
Procedure, shortened: as §1

[2] = test system: Pseudomonas aeruginosa ATCC 27853; settings: ATCC 27853
Procedure, shortened: as §1

[3] = test system: Klebsiella pneumoniae SSI #3010; settings: SSI #3010
Procedure, shortened: as §1

[4] = test system: Escherichia coli ATCC 25922; settings: ATCC 25922
Procedure, shortened: as §1

[5] = test system: Enterobacter cloacae 848840; settings: 848840
Procedure, shortened: as §1

[6] = test system: Klebsiella pneumoniae 968733; settings: 968733
Procedure, shortened: as §1

[7] = test system: Acinetobacter baumannii DSM 30008; settings: DSM 30008
Procedure, shortened: as §1

[8] = test system: human red blood cells (hRBC); assay: Hemolysis; settings: red cells of human, 1 h, 200
Procedure, shortened: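 First, fresh human erythrocytes are washed in PBS; next, they are incubated at 20% (v/v) with compound at 200 μg/mL for 1 h at 37° C. Finally, centrifuged supernatants are diluted and OD540 is taken relative to the Triton X-100 lysis control.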

MIC (Escherichia coli 926415) [µg/mL] | MIC [1] [µg/mL] | MIC [2] [µg/mL] | MIC [3] [µg/mL] | MIC [4] [µg/mL] | MIC [5] [µg/mL] | MIC [6] [µg/mL] | MIC [7] [µg/mL] | SMILES | Hemolysis at 200 μg/mL [8] [%]
0.125 (≈ 0.0525 µM) | 0.125 (≈ 0.0525 µM) | 0.25 (≈ 0.105 µM) | 0.125 (≈ 0.0525 µM) | 0.0625 (≈ 0.0262 µM) | 0.25 (≈ 0.105 µM) | 0.25 (≈ 0.105 µM) | 0.03125 (≈ 0.0131 µM) | CC(=O)N[C@H](C(=O)N[C@H]1CCCNC(=O)[C@@H](Cc2ccc(O)cc2)NC(=O)[C@H](C(C)(C)C)NC(=O)[C@H](CO)NC(=O)[C@H](Cc2c[nH]c3ccccc23)NC(=O)[C@H](CCO)NC(=O)[C@@H](CCN)NC(=O)[C@H](CCC(=O)N[C@@H](CCN)C(=O)N[C@H](C(=O)N[C@@H](CN)C(=O)N[C@H]2CCNC(=O)[C@H]([C@@H](C)O)NC(=O)[C@H](CCN)NC(=O)[C@H](CCN)NC(=O)[C@H](CC(C)C)NC(=O)[C@@H](CC(C)C)NC(=O)[C@H](CCN)NC2=O)[C@@H](C)O)NC(=O)[C@H](CO)NC(=O)[C@H](Cc2ccc(O)cc2)NC1=O)C(C)C [Ex. 26] (I: Ac-V[Orn]YSE[dDab][hSer]WS[Tle][dY] / II: [Dab]T[Dap][Dab][Dab][dL]L[Dab][Dab]T; lactam I:2-I:C, II:4-II:C; amide I:5-II:N) | 1
0.25 (≈ 0.104 µM) | 0.125 (≈ 0.052 µM) | 0.125 (≈ 0.052 µM) | 0.0625 (≈ 0.026 µM) | 0.0625 (≈ 0.026 µM) | 0.25 (≈ 0.104 µM) | 0.25 (≈ 0.104 µM) | 0.0625 (≈ 0.026 µM) | CC(=O)N[C@H](C(=O)N[C@H]1CCNC(=O)CC[C@@H](C(=O)N[C@@H](CO)C(N)=O)NC(=O)[C@H](C(C)(C)C)NC(=O)[C@H](CO)NC(=O)[C@H](Cc2c[nH]c3ccccc23)NC(=O)[C@H](CO)NC(=O)[C@@H](CCN)NC(=O)[C@H](CCC(=O)N[C@@H](CCN)C(=O)N[C@H](C(=O)N[C@@H](CN)C(=O)N[C@H]2CCNC(=O)[C@H]([C@@H](C)O)NC(=O)[C@H](CCN)NC(=O)[C@H](CCN)NC(=O)[C@H](CC(C)C)NC(=O)[C@@H](CC(C)C)NC(=O)[C@H](CCN)NC2=O)[C@@H](C)O)NC(=O)[C@H](CN)NC(=O)[C@H](Cc2ccc(O)cc2)NC1=O)C(C)C [Ex. 146] (I: Ac-V[Dab]Y[Dap]E[dDab]SWS[Tle]ES-NH2 / II: [Dab]T[Dap][Dab][Dab][dL]L[Dab][Dab]T; lactam I:2-I:11, II:4-II:C; amide I:5-II:N) | <1
2 (≈ 0.83 µM) | 2 (≈ 0.83 µM) | 0.5 (≈ 0.207 µM) | 0.5 (≈ 0.207 µM) | 0.25 (≈ 0.104 µM) | 1 (≈ 0.415 µM) | 8 (≈ 3.32 µM) | 0.25 (≈ 0.104 µM) | CN[C@H](C(=O)N[C@@H](CN)C(=O)N[C@@H](Cc1ccc(O)cc1)C(=O)N[C@@H]1C(=O)N[C@@H](CCC(=O)N[C@@H](CCN)C(=O)N[C@H](C(=O)N[C@@H](CCN)C(=O)N[C@H]2CCNC(=O)[C@H]([C@@H](C)O)NC(=O)[C@H](CCN)NC(=O)[C@H](CCN)NC(=O)[C@H](CC(C)C)NC(=O)[C@@H](CC(C)C)NC(=O)[C@H](CCN)NC2=O)[C@@H](C)O)C(=O)N[C@H](CCN)C(=O)N[C@@H]([C@@H](C)O)C(=O)N[C@@H](Cc2c[nH]c3ccccc23)C(=O)N[C@H](C(=O)N[C@H](C(=O)N[C@@H](C)C(=O)N[C@@H](CO)C(N)=O)C(C)(C)C)CSSC1(C)C)C(C)C [Ex. 181] (I: H-[NMeV][Dap]Y[Pen]E[dDab]TWC[Tle]AS-NH2 / II: [Dab]T[Dab][Dab][Dab][dL]L[Dab][Dab]T; disulfide I:4-I:9; amide I:5-II:N; lactam II:4-II:C) | <1
1 (≈ 0.396 µM) | 0.5 (≈ 0.198 µM) | 0.25 (≈ 0.099 µM) | 0.5 (≈ 0.198 µM) | 0.125 (≈ 0.0495 µM) | 0.5 (≈ 0.198 µM) | 0.25 (≈ 0.099 µM) | 1 (≈ 0.396 µM) | CC(C)CCCCC(=O)N[C@H](C(=O)N[C@H]1CSSC[C@@H](C(=O)N[C@@H](CO)C(N)=O)NC(=O)[C@H](C(C)C)NC(=O)[C@H](CCO)NC(=O)[C@H](Cc2c[nH]c3ccccc23)NC(=O)[C@H](CCO)NC(=O)[C@@H](CCN)NC(=O)[C@H](CCC(=O)N[C@@H](CCN)C(=O)N[C@H](C(=O)N[C@@H](CCN)C(=O)N[C@H]2CCNC(=O)[C@H]([C@@H](C)O)NC(=O)[C@H](CCN)NC(=O)[C@H](CCN)NC(=O)[C@H](CC(C)C)NC(=O)[C@@H](CC(C)C)NC(=O)[C@H](CCN)NC2=O)[C@@H](C)O)NC(=O)[C@H](CCN)NC(=O)[C@H](Cc2ccc(O)cc2)NC1=O)C(C)C [Ex. 40] (I: {Heptanoyl(6-Me)}-VCY[Dab]E[dDab][hSer]W[hSer]VCS-NH2 / II: [Dab]T[Dab][Dab][Dab][dL]L[Dab][Dab]T; disulfide I:2-I:11; amide I:5-II:N; lactam II:4-II:C) | 2
